System: amnesia induced by scopolamine in rats
Test: passive avoidance test, amnesia induced by scopolamine in rats
Type: in vivo
Description: The purpose of the study is to examine the effects of etifoxine on amnesia, induced by a substance which is an antagonist of the cholinergic receptors in rats, scopolamine (see in particular Rush (1988) Behav. Neural. Biol. 1988 50:255-274).
Memory capacities are evaluated over the course of the passive avoidance test in a box with two compartments, dark and light. In a first step, the acquisition step, entering the dark compartment is associated with an unpleasant electric shock. In a second step, the retention step, the latency to enter the dark compartment is measured. The lower this latency, the more strongly the animal is suffering from amnesia.
Amnesia is induced by administering scopolamine 30 minutes before the information acquisition step.
Two series of tests were performed: • 1) Etifoxine was administered intraperitoneally 35 minutes before acquisition of the event. • 7 groups of 10 to 20 rats were formed, each group receiving the following respective treatments: • Group 1 (reference): scopolamine 0 mg/kg, etifoxine 0 mg/kg • Group 2 (control): scopolamine 0 mg/kg, etifoxine 50 mg/kg • Group 3: scopolamine 1.4 mg/kg, etifoxine 0 mg/kg • Group 4: scopolamine 1.4 mg/kg, etifoxine 6.2 mg/kg • Group 5: scopolamine 1.4 mg/kg, etifoxine 12.5 mg/kg • Group 6: scopolamine 1.4 mg/kg, etifoxine 25 mg/kg • Group 7: scopolamine 1.4 mg/kg, etifoxine 50 mg/kg • 2) Etifoxine was administered intraperitoneally immediately after acquisition of the event. • 7 groups of 10 rats were formed, each group receiving the following respective treatments: • Group 1 (reference): scopolamine 0 mg/kg, etifoxine 0 mg/kg • Group 2 (control): scopolamine 0 mg/kg, etifoxine 50 mg/kg • Group 3: scopolamine 1.4 mg/kg, etifoxine 0 mg/kg • Group 4: scopolamine 1.4 mg/kg, etifoxine 6.2 mg/kg • Group 5: scopolamine 1.4 mg/kg, etifoxine 12.5 mg/kg • Group 6: scopolamine 1.4 mg/kg, etifoxine 25 mg/kg • Group 7: scopolamine 1.4 mg/kg, etifoxine 50 mg/kg
For each test series and for each group the latency to enter the dark compartment was measured in the case of acquisition and in the case of retention.
For the first series of tests, a one-way ANOVA analysis was performed followed by the Student-Newman-Keuls test in order to find the differences between the groups. The difference is considered significant if the critical value P obtained was less than 0.05.
For the second series of tests, the non-parametric Kruskal-Wallis test was performed followed by the Dunn test in order to find the differences between the groups. The difference is considered significant if the critical value P obtained was less than 0.05.

Row | SMILES | time period to enter the dark compartment vs. reference groups (rats, scopolamine 1.4 mg/kg 30 minutes before acquisition, etifoxine 0, FIGS. 1, 2) | anti-amnesic action (animals, model where memory disorder is induced by scopolamine (summary statement)) | effect on the amnesic effects of scopolamine (latency to enter the dark compartment, retention) (rats, etifoxine 6.2-50 mg/kg intraperitoneally 35 minutes before acquisition, scopolamine 1.4 mg/kg 30 minutes before acquisition, FIG. 1) | effect on the amnesic effects of scopolamine (latency to enter the dark compartment, retention) (rats, etifoxine 6.2-50 mg/kg intraperitoneally immediately after acquisition, scopolamine 1.4 mg/kg 30 minutes before acquisition, FIG. 2)
1 | CN1[C@@H]2C[C@@H](OC(=O)[C@H](CO)c3ccccc3)C[C@H]1[C@@H]1O[C@@H]12 [Scopolamine] | significantly shorter |  |  | 
2 | CCNC1=Nc2ccc(Cl)cc2C(C)(c2ccccc2)O1.Cl (stereo not shown) [etifoxine, 6-chloro-2-ethylamino-4-methyl-4-phenyl-4H-[3,1]benzoxazine hydrochloride] |  | exhibits anti-amnesic action | counteracts the amnesic effects of scopolamine according to an inverted U-shaped curve | counteracts the amnesic effects of scopolamine according to an inverted U-shaped curve
